Assay results taken from ChEMBL document CHEMBL1155271, “Synthesis, crystal structures and antibacterial activity studies of aza-derivatives of phytoalexin from cotton plant--gossypol” (2009).
Converted amounts (≈) assume the structure as drawn. The source made the active and inactive calls. No cut-off for these calls is given here.

What was measured:
Staphylococcus aureus [1] = test: microbe, parasite or virus in culture; conditions: ATCC 29213, 18 h, read-out: DIZ
Description: Antimicrobial activity against Staphylococcus aureus ATCC 29213 at 5 ug after 18 hrs by disk diffusion method

Bacillus subtilis [2] = test: microbe, parasite or virus in culture; conditions: ATCC 6633, 18 h, read-out: DIZ
Description: Antimicrobial activity against Bacillus subtilis ATCC 6633 at 5 ug after 18 hrs by disk diffusion method

Staphylococcus aureus [3] = test: Antimicrobial activity against Staphylococcus aureus ATCC 6538 after 18 hrs by twofold dilution technique; format: functional; conditions: ATCC 6538, 18 h
Staphylococcus aureus [4] = test: Antimicrobial activity against methicillin-resistant Staphylococcus aureus 236/7 by twofold dilution technique; format: functional
Enterococcus hirae [5] = test: Antimicrobial activity against Enterococcus hirae ATCC 10541 at 5 ug after 18 hrs by disk diffusion method; format: functional, organism-based
Staphylococcus aureus [6] = test: Antimicrobial activity against Methicillin susceptible Staphylococcus aureus 212/7 by twofold dilution technique; format: functional
Staphylococcus aureus [7] = test: Antimicrobial activity against Methicillin susceptible Staphylococcus aureus 239/7 by twofold dilution technique; format: functional
Micrococcus luteus [8] = test: Antimicrobial activity against Micrococcus luteus ATCC 10240 by twofold dilution technique; format: functional
Micrococcus luteus [9] = test: Antimicrobial activity against Micrococcus luteus ATCC 10240 at 5 ug after 18 hrs by disk diffusion method; format: functional; conditions: ATCC 10240, 18 h, read-out: DIZ
Bacillus subtilis [10] = test: Antimicrobial activity against Bacillus subtilis ATCC 6633 after 18 hrs by twofold dilution technique; format: functional; conditions: ATCC 6633, 18 h
Staphylococcus aureus [11] = test: Antimicrobial activity against Methicillin susceptible Staphylococcus aureus 208/7 by twofold dilution technique; format: functional
Staphylococcus aureus [12] = test: Antimicrobial activity against methicillin-resistant Staphylococcus aureus 200/7 by twofold dilution technique; format: functional
Staphylococcus aureus [13] = test: Antimicrobial activity against Methicillin susceptible Staphylococcus aureus 206/7 by twofold dilution technique; format: functional
Staphylococcus aureus [14] = test: Antimicrobial activity against Methicillin susceptible Staphylococcus aureus 207/7 by twofold dilution technique; format: functional
Bacillus cereus [15] = test: Antimicrobial activity against Bacillus cereus ATCC 11778 at 5 ug after 18 hrs by disk diffusion method; format: functional; conditions: ATCC 11778, 18 h, read-out: DIZ
Staphylococcus aureus [16] = test: Antimicrobial activity against Staphylococcus aureus ATCC 25923 after 18 hrs by twofold dilution technique; format: functional; conditions: ATCC 25923, 18 h
[17] = test system: Staphylococcus epidermidis; test: Antimicrobial activity against Staphylococcus epidermidis ATCC 12228 by twofold dilution technique; format: functional
[18] = test system: Staphylococcus epidermidis; test: microbe, parasite or virus in culture; conditions: ATCC 12228, 18 h, read-out: DIZ
Description: Antimicrobial activity against Staphylococcus epidermidis ATCC 12228 at 5 ug after 18 hrs by disk diffusion method

Staphylococcus aureus [19] = test: Antimicrobial activity against Methicillin susceptible Staphylococcus aureus 243/7 by twofold dilution technique; format: functional
Staphylococcus aureus [20] = test: Antimicrobial activity against methicillin-resistant Staphylococcus aureus 146/6 by twofold dilution technique; format: functional
Staphylococcus aureus [21] = test: microbe, parasite or virus in culture; conditions: ATCC 6538, 18 h, read-out: DIZ
Description: Antimicrobial activity against Staphylococcus aureus ATCC 6538 at 5 ug after 18 hrs by disk diffusion method

Staphylococcus aureus [22] = test: Antimicrobial activity against Methicillin susceptible Staphylococcus aureus 238/7 by twofold dilution technique; format: functional
Staphylococcus aureus [23] = test: Antimicrobial activity against methicillin-resistant Staphylococcus aureus 141/6 by twofold dilution technique; format: functional
Micrococcus luteus [24] = test: Antimicrobial activity against Micrococcus luteus ATCC 9341 after 18 hrs by twofold dilution technique; format: functional; conditions: ATCC 9341, 18 h
Staphylococcus aureus [25] = test: Antimicrobial activity against Staphylococcus aureus ATCC 29213 after 18 hrs by twofold dilution technique; format: functional; conditions: ATCC 29213, 18 h
Micrococcus luteus [26] = test: Antimicrobial activity against Micrococcus luteus ATCC 9341 at 5 ug after 18 hrs by disk diffusion method; format: functional; conditions: ATCC 9341, 18 h, read-out: DIZ
Staphylococcus aureus [27] = test: Antimicrobial activity against Methicillin susceptible Staphylococcus aureus 213/7 by twofold dilution technique; format: functional
Staphylococcus aureus [28] = test: microbe, parasite or virus in culture; conditions: ATCC 25923, 18 h, read-out: DIZ
Description: Antimicrobial activity against Staphylococcus aureus ATCC 25923 at 5 ug after 18 hrs by disk diffusion method

Staphylococcus aureus [29] = test: Antimicrobial activity against methicillin-resistant Staphylococcus aureus 144/6 by twofold dilution technique; format: functional
Enterococcus hirae [30] = test: Antimicrobial activity against Enterococcus hirae ATCC 10541 after 18 hrs by twofold dilution technique; format: functional; conditions: ATCC 10541, 18 h
Staphylococcus aureus [31] = test: Antimicrobial activity against Methicillin susceptible Staphylococcus aureus 237/7 by twofold dilution technique; format: functional
Staphylococcus aureus [32] = test: Antimicrobial activity against methicillin-resistant Staphylococcus aureus 136/6 by twofold dilution technique; format: functional
Staphylococcus aureus [33] = test: Antimicrobial activity against methicillin-resistant Staphylococcus aureus 217/7 by twofold dilution technique; format: functional
Staphylococcus aureus [34] = test: Antimicrobial activity against methicillin-resistant Staphylococcus aureus 143/6 by twofold dilution technique; format: functional
Staphylococcus aureus [35] = test: Antimicrobial activity against methicillin-resistant Staphylococcus aureus 140/6 by twofold dilution technique; format: functional
Staphylococcus aureus [36] = test: Antimicrobial activity against Staphylococcus aureus NCTC 4163 after 18 hrs by twofold dilution technique; format: functional; conditions: NCTC 4163, 18 h
Staphylococcus aureus [37] = test: Antimicrobial activity against Methicillin susceptible Staphylococcus aureus 242/7 by twofold dilution technique; format: functional
Staphylococcus aureus [38] = test: Antimicrobial activity against methicillin-resistant Staphylococcus aureus 218/7 by twofold dilution technique; format: functional
Bacillus cereus [39] = test: Antimicrobial activity against Bacillus cereus ATCC 11778 after 18 hrs by twofold dilution technique; format: functional; conditions: ATCC 11778, 18 h
Staphylococcus aureus [40] = test: microbe, parasite or virus in culture; conditions: NCTC 4163, 18 h, read-out: DIZ
Description: Antimicrobial activity against Staphylococcus aureus NCTC 4163 at 5 ug after 18 hrs by disk diffusion method

O=C(O)c1cn(C2CC2)c2cc(N3CCNCC3)c(F)cc2c1=O [CIPROFLOXACIN]
zone of inhibition at 5 µg/disc (Staphylococcus aureus [1]): 22 mm | zone of inhibition at 5 µg/disc (Bacillus subtilis [2]): 40 mm | MIC (Staphylococcus aureus [3]): < 0.125 µg/mL | MIC (Staphylococcus aureus [4]): 1 µg/mL (≈ 3.02 µM) | diameter of the inhibition zone (DIZ) (Enterococcus hirae [5]): inactive | MIC (Staphylococcus aureus [6]): 0.5 µg/mL (≈ 1.51 µM) | MIC (Staphylococcus aureus [7]): 0.5 µg/mL (≈ 1.51 µM) | MIC (Micrococcus luteus [8]): 0.5 µg/mL (≈ 1.51 µM) | zone of inhibition at 5 µg/disc (Micrococcus luteus [9]): 24 mm | MIC (Bacillus subtilis [10]): 2 µg/mL (≈ 6.04 µM) | MIC (Staphylococcus aureus [11]): 0.5 µg/mL (≈ 1.51 µM) | MIC (Staphylococcus aureus [12]): > 8 µg/mL | MIC (Staphylococcus aureus [13]): 2 µg/mL (≈ 6.04 µM) | MIC (Staphylococcus aureus [14]): 0.5 µg/mL (≈ 1.51 µM) | zone of inhibition at 5 µg/disc (Bacillus cereus [15]): 20 mm | MIC (Staphylococcus aureus [16]): 0.5 µg/mL (≈ 1.51 µM) | MIC [17]: 4 µg/mL (≈ 12.1 µM) | zone of inhibition at 5 µg/disc [18]: 30 mm | MIC (Staphylococcus aureus [19]): 0.5 µg/mL (≈ 1.51 µM) | MIC (Staphylococcus aureus [20]): > 8 µg/mL | zone of inhibition at 5 µg/disc (Staphylococcus aureus [21]): 28 mm | MIC (Staphylococcus aureus [22]): 0.5 µg/mL (≈ 1.51 µM) | MIC (Staphylococcus aureus [23]): > 8 µg/mL | MIC (Micrococcus luteus [24]): 0.5 µg/mL (≈ 1.51 µM) | MIC (Staphylococcus aureus [25]): 0.5 µg/mL (≈ 1.51 µM) | zone of inhibition at 5 µg/disc (Micrococcus luteus [26]): 22 mm | MIC (Staphylococcus aureus [27]): 0.5 µg/mL (≈ 1.51 µM) | zone of inhibition at 5 µg/disc (Staphylococcus aureus [28]): 26 mm | MIC (Staphylococcus aureus [29]): > 8 µg/mL | MIC (Enterococcus hirae [30]): 0.5 µg/mL (≈ 1.51 µM) | MIC (Staphylococcus aureus [31]): 4 µg/mL (≈ 12.1 µM) | MIC (Staphylococcus aureus [32]): > 8 µg/mL | MIC (Staphylococcus aureus [33]): > 8 µg/mL | MIC (Staphylococcus aureus [34]): > 8 µg/mL | MIC (Staphylococcus aureus [35]): > 8 µg/mL | MIC (Staphylococcus aureus [36]): 0.5 µg/mL (≈ 1.51 µM) | MIC (Staphylococcus aureus [37]): 0.5 µg/mL (≈ 1.51 µM) | MIC (Staphylococcus aureus [38]): 4 µg/mL (≈ 12.1 µM) | MIC (Bacillus cereus [39]): 1 µg/mL (≈ 3.02 µM) | zone of inhibition at 5 µg/disc (Staphylococcus aureus [40]): 26 mm
